# Reference: ChEMBL document CHEMBL1154456, “CoMFA analysis of dual/multiple PPAR activators” (Eur J Med Chem, 2008)
# Biological target: T1, Peroxisome proliferator-activated receptor delta (Homo sapiens) (UniProt Q03181)
# T1 sequence (whole entry): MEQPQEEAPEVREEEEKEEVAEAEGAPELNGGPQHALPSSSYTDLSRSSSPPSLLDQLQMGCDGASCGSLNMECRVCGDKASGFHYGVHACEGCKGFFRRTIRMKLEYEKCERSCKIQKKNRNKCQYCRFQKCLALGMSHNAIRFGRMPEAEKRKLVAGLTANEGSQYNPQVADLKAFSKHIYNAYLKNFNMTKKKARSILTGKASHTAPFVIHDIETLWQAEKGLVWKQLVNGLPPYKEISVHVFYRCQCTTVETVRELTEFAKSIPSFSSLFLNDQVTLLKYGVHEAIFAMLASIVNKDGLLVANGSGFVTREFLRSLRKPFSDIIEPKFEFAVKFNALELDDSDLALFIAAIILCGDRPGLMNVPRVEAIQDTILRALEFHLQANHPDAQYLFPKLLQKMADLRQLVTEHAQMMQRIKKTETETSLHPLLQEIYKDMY
# Assay: Agonist activity at human PPARdelta expressed in african green monkey CV1 cells co-transfected with Gal4 assessed as reporter activity by transient transactivation assay
# Assay type: functional, cell-based
# Parameters: concentration or dose not given beside the values
# Conditions: CV-1
row,SMILES,Activity [%]
1,CC(C)OC(Cc1ccc(OCCc2noc(-c3cc(C(F)(F)F)cc(C(F)(F)F)c3)n2)cc1)C(=O)O (stereo unspecified),< 40
2,CC(C)OC(Cc1ccc(OCCc2noc(-c3ccc(Cl)cc3)n2)cc1)C(=O)O (stereo unspecified),40
3,CC(C)OC(Cc1ccc(OCCc2noc(-c3ccc(F)cc3)n2)cc1)C(=O)O (stereo unspecified),< 40
4,CC(C)OC(Cc1ccc(OCc2noc(C3CCCCC3)n2)cc1)C(=O)O (stereo unspecified),< 40
5,CC(C)OC(Cc1ccc(OCCc2noc(-c3ccccc3)n2)cc1)C(=O)O (stereo unspecified),< 40

# Biological target: T2, Peroxisome proliferator-activated receptor gamma (Homo sapiens, UniProt P37231)
# T2 sequence (P37231 whole entry): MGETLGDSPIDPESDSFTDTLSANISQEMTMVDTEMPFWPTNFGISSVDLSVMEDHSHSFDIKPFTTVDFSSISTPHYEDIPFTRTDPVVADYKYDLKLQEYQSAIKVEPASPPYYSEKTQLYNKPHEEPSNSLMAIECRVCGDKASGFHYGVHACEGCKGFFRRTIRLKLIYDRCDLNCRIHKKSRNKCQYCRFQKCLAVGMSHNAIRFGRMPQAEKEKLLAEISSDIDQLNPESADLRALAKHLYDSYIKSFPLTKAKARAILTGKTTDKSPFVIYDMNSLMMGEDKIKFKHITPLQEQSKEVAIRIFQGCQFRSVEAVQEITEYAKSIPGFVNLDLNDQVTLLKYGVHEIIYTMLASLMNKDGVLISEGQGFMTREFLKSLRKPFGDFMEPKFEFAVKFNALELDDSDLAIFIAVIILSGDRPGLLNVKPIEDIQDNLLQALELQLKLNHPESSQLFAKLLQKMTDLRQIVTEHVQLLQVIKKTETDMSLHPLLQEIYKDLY
# Assay: Agonist activity at human PPARgamma expressed in african green monkey CV1 cells co-transfected with Gal4 assessed as reporter activity by transient transactivation assay
# Assay type: functional, cell-based, CV-1
# Conditions: not given
row,SMILES,EC50 [µM]
1,CC(C)OC(Cc1ccc(OCCc2noc(-c3ccccc3C(F)(F)F)n2)cc1)C(=O)O (stereo unspecified),0.16
